ChEMBL document CHEMBL5579807, “Development of STING degrader with double covalent ligands” (Bioorg Med Chem Lett, 2024)
Each block holds one compound with its values, some of them ahead of it. Active and inactive are the calls of the source. No cut-off for these calls is given here.

Assays:
Format in all cases: cell-based
[1] = biological target: T1, E3 ubiquitin-protein ligase RNF126/Stimulator of interferon genes protein (Homo sapiens) (UniProt Q86WV6+Q9BV68); assay: PROTAC activity at RNF126/STING in human THP-1 cells assessed as induction of STING degradation at 3 uM incubated for 18 hrs in the presence of MLN7243 by Western blot analysis
T1 sequence (Q86WV6 whole entry, looked up): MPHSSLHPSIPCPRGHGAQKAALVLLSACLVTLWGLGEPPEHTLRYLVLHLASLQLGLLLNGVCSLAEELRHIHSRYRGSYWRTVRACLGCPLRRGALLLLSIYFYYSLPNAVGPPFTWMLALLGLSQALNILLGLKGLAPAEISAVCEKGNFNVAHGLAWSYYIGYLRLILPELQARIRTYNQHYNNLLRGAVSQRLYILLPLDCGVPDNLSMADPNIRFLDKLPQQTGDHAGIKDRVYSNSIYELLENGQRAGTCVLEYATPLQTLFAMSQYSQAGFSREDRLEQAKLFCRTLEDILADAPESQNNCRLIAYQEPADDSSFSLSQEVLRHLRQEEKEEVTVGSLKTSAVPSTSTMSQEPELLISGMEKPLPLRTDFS
T1 sequence (Q9BV68 whole entry, looked up): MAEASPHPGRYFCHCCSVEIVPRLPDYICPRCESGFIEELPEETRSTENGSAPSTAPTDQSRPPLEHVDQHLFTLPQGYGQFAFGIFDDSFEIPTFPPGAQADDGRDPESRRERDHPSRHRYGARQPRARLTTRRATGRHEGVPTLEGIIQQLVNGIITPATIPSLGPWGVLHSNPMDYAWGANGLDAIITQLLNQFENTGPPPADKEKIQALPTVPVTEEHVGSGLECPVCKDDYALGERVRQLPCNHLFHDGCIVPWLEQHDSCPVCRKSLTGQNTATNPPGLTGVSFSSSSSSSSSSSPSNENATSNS

[2] = biological target: T1, E3 ubiquitin-protein ligase RNF126/Stimulator of interferon genes protein (Homo sapiens); assay: PROTAC activity at RNF126/STING in human THP-1 cells assessed as induction of STING degradation at 3 uM incubated for 18 hrs in the presence of MG132 by Western blot analysis
[3] = biological target: T1, E3 ubiquitin-protein ligase RNF126/Stimulator of interferon genes protein (Homo sapiens); assay: PROTAC activity at RNF126/STING in human THP-1 cells assessed as induction of STING degradation at 3 to 30 uM incubated for 6 to 48 hrs by Western blot analysis; details: dose 3-30 µM, time 6-48 hrs
[4] = biological target: T1, E3 ubiquitin-protein ligase RNF126/Stimulator of interferon genes protein (Homo sapiens); assay: PROTAC activity at RNF126/STING in human THP-1 cells assessed as induction of STING degradation at 10 uM incubated for 24 hrs by Western blot analysis
[5] = biological target: Stimulator of interferon genes protein (Homo sapiens) (UniProt Q86WV6); assay: Inhibtion of STING in 293-Dual hSTING-R232 cells co-expressing interferon beta luciferase reporter assessed as inhibition of interferon response incubated for 16 hrs in presence of cGAMP by luminescence based luciferase gene reporter assay; details: dose 1-30 µM
Chain of Stimulator of interferon genes protein (Homo sapiens) (Q86WV6 whole entry): as the sequence (Q86WV6 whole entry, looked up) above

[6] = biological target: T1, E3 ubiquitin-protein ligase RNF126/Stimulator of interferon genes protein (Homo sapiens); assay: PROTAC activity at RNF126/STING in human THP-1 cells assessed as induction of STING degradation upto 30 uM incubated for 24 hrs by Western blot analysis
[7] = biological target: T2, Protein cereblon/Stimulator of interferon genes protein (Homo sapiens) (UniProt Q96SW2+Q86WV6); assay: PROTAC activity at CRBN/STING in human THP-1 cells assessed as induction of STING degradation incubated for 24 to 48 hrs by Western blot analysis; details: dose 3-30 µM, time 24-48 hrs
T2 sequence (Q86WV6 whole entry, looked up): as above
T2 sequence (Q96SW2 whole entry, looked up): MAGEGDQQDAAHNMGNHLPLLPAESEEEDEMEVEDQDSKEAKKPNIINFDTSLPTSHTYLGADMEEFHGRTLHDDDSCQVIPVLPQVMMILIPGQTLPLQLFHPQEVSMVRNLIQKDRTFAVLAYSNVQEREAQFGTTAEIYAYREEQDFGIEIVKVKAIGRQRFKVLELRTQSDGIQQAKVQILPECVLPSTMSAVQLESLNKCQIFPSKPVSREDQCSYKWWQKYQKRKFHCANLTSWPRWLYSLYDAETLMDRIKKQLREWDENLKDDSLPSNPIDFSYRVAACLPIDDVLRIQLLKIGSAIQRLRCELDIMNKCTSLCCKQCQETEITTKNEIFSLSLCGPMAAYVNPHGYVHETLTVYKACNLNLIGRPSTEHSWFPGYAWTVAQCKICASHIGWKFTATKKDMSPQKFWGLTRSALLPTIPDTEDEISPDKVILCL

[8] = biological target: T2, Protein cereblon/Stimulator of interferon genes protein (Homo sapiens); assay: PROTAC activity at CRBN/STING in human THP-1 cells assessed as induction of STING degradation at 3 to 30 uM incubated for 6 hrs by Western blot analysis; details: dose 3-30 µM

- Activity [1]: inactive
- Activity [2]: inactive
- Activity [3]: Active
- Activity [4]: Active
- inhibition [5]: Dose-Dependent Effect
Structure (SMILES): COc1ccc(C(=O)/C=C/C(=O)N2CCN(c3ccc(NC(=O)c4ccc([N+](=O)[O-])o4)cc3)CC2)cc1

- Activity [6]: Active
Structure (SMILES): COc1ccc(C(=O)/C=C/C(=O)Nc2ccc(NC(=O)c3ccc([N+](=O)[O-])o3)cc2)cc1

- Activity [7]: Dose-Dependent Effect
- Activity [8]: inactive
Structure (SMILES): O=C(/C=C/C(=O)Nc1ccc(NC(=O)c2ccc([N+](=O)[O-])o2)cc1)NCCCCCCNc1cccc2c1C(=O)N(C1CCC(=O)NC1=O)C2=O (stereo not drawn)
